Laboratory results published in ChEMBL document CHEMBL4295262, “Evaluation of the utility of stem-cell derived cardiomyocytes for drug proarrhythmic potential” (2019).
One block for each compound: values may come before it.

Experiments:
Details in all cases: human, ipsc-cm
[1] = (§1) Electrical activity assay on cell lines treated with a given drug. DMSO was used as a vehicle and a control, unblinded dofetilide was used as a control.; type: cell-based; set-up: APDc: unit not given here
[2] = as §1
[3] = as §1; remark: listed apart in the source
[4] = as §1; remark: listed apart in the source
[5] = as §1; type: ADME, cell-based; set-up: FPDc: unit not given here
[6] = 3.169 µM, concentration (um) 3.16912 uM
[7] = 10.01 µM, concentration (um) 10.0144 uM
[8] = 31.65 µM, concentration (um) 31.6456 uM
[9] = 100 µM, concentration (um) 100 uM
[10] = 0.0001 µM, concentration (um) 0.0001 uM
[11] = 0.001 µM, concentration (um) 0.001 uM
[12] = 0.01 µM, concentration (um) 0.01 uM
[13] = 0.1 µM, concentration (um) 0.1 uM

APDc [1, 6]: 42.47
FPD measurement [1, 6]: 42.47 FPDc
APDc [1, 7]: 43.54
FPD measurement [1, 7]: 43.54 FPDc
APDc [1, 8]: 43.18
FPD measurement [1, 8]: 43.18 FPDc
APDc [1, 9]: 55.84
FPD measurement [1, 9]: 55.84 FPDc
FPD measurement ([3]; 3.169 µM): 54.76 FPDc
FPDc ([3]; 3.169 µM): 54.76
FPD measurement ([3]; 10.01 µM): 55.07 FPDc
FPDc ([3]; 10.01 µM): 55.07
FPD measurement ([3]; 31.65 µM): 53.88 FPDc
FPDc ([3]; 31.65 µM): 53.88
FPD measurement ([3]; 100 µM): 71.03 FPDc
FPDc ([3]; 100 µM): 71.03
FPDc ([4]; 3.169 µM): 61.11
FPDc ([4]; 10.01 µM): 74.38
FPDc ([4]; 31.65 µM): 72.23
FPDc ([4]; 100 µM): 68
FPDc [5, 6]: 0.03359
FPDc [5, 7]: 0.03613
FPDc [5, 8]: 0.03258
SMILES: COCCc1ccc(OCC(O)CNC(C)C)cc1 (stereo not drawn) [METOPROLOL]
FPD measurement ([2]; 3.169 µM): 1 Values Out Of 1 Were Excluded Due To Quiescence Or 0 Fpdc
FPDc ([2]; 3.169 µM): 1 Values Out Of 1 Were Excluded Due To Quiescence Or 0 Fpdc
FPD measurement ([2]; 10.01 µM): 1 Values Out Of 1 Were Excluded Due To Quiescence Or 0 Fpdc
FPDc ([2]; 10.01 µM): 1 Values Out Of 1 Were Excluded Due To Quiescence Or 0 Fpdc
FPD measurement ([2]; 31.65 µM): 1 Values Out Of 1 Were Excluded Due To Quiescence Or 0 Fpdc
FPDc ([2]; 31.65 µM): 1 Values Out Of 1 Were Excluded Due To Quiescence Or 0 Fpdc
FPD measurement ([2]; 100 µM): 1 Values Out Of 1 Were Excluded Due To Quiescence Or 0 Fpdc
FPDc ([2]; 100 µM): 1 Values Out Of 1 Were Excluded Due To Quiescence Or 0 Fpdc
FPD measurement [5, 9]: More Than Half The Wells Had A Quiescence Event Or Fpdc Readings Of 0
FPDc [5, 9]: More Than Half The Wells Had A Quiescence Event Or Fpdc Readings Of 0

APDc [1, 10]: 43.63
FPD measurement [1, 10]: 43.63 FPDc
APDc [1, 11]: 43.37
FPD measurement [1, 11]: 43.37 FPDc
APDc [1, 12]: 124.5
FPD measurement [1, 12]: 124.5 FPDc
FPD measurement ([3]; 0.0001 µM): 56.72 FPDc
FPDc ([3]; 0.0001 µM): 56.72
FPD measurement ([3]; 0.001 µM): 63.97 FPDc
FPDc ([3]; 0.001 µM): 63.97
FPDc ([4]; 0.0001 µM): 68.56
FPDc ([4]; 0.001 µM): 62.64
FPDc [5, 10]: 0.0175
FPDc [5, 11]: 0.01997
FPDc [5, 12]: 0.0289
SMILES: CCCCCCCN(CC)CCCC(O)c1ccc(NS(C)(=O)=O)cc1 (stereo not drawn) [IBUTILIDE]
FPD measurement ([2]; 0.0001 µM): 1 Values Out Of 1 Were Excluded Due To Quiescence Or 0 Fpdc
FPDc ([2]; 0.0001 µM): 1 Values Out Of 1 Were Excluded Due To Quiescence Or 0 Fpdc
FPD measurement ([2]; 0.001 µM): 1 Values Out Of 1 Were Excluded Due To Quiescence Or 0 Fpdc
FPDc ([2]; 0.001 µM): 1 Values Out Of 1 Were Excluded Due To Quiescence Or 0 Fpdc
FPD measurement ([2]; 0.01 µM): 1 Values Out Of 1 Were Excluded Due To Quiescence Or 0 Fpdc
FPDc ([2]; 0.01 µM): 1 Values Out Of 1 Were Excluded Due To Quiescence Or 0 Fpdc
FPD measurement ([2]; 0.1 µM): 1 Values Out Of 1 Were Excluded Due To Quiescence Or 0 Fpdc
FPDc ([2]; 0.1 µM): 1 Values Out Of 1 Were Excluded Due To Quiescence Or 0 Fpdc
FPD measurement ([3]; 0.01 µM): More Than Half The Wells Had A Quiescence Event Or Fpdc Readings Of 0
FPDc ([3]; 0.01 µM): More Than Half The Wells Had A Quiescence Event Or Fpdc Readings Of 0
FPD measurement ([3]; 0.1 µM): More Than Half The Wells Had A Quiescence Event Or Fpdc Readings Of 0
FPDc ([3]; 0.1 µM): More Than Half The Wells Had A Quiescence Event Or Fpdc Readings Of 0
FPD measurement ([4]; 0.0001 µM): 5 Values Out Of 5 Were Excluded Due To Quiescence Or 0 Apdc
FPD measurement ([4]; 0.001 µM): 5 Values Out Of 5 Were Excluded Due To Quiescence Or 0 Apdc
FPD measurement ([4]; 0.01 µM): 5 Values Out Of 5 Were Excluded Due To Quiescence Or 0 Apdc
FPDc ([4]; 0.01 µM): 5 Values Out Of 5 Were Excluded Due To Quiescence Or 0 Fpdc
FPD measurement ([4]; 0.1 µM): More Than Half The Wells Had A Quiescence Event Or Apdc Readings Of 0
FPDc ([4]; 0.1 µM): More Than Half The Wells Had A Quiescence Event Or Fpdc Readings Of 0
FPD measurement [5, 13]: More Than Half The Wells Had A Quiescence Event Or Fpdc Readings Of 0
FPDc [5, 13]: More Than Half The Wells Had A Quiescence Event Or Fpdc Readings Of 0
